# From US12297285B2 (Orna Therapeutics, Inc., priority 2022, dated 2025)
# Legend:
# Test in all cases: IRES screening, Gaussia luciferase from LNP-oRNA (Table 27)
# Settings in all cases: Gaussia luciferase luminescence in supernatant 48 hours after LNP-oRNA transfection, normalized to control (caprine kobuvirus IRES)
# [1] = tested on: primary human skeletal myotubes
# [2] = tested on: primary human hepatocytes
# [3] = tested on: activated primary human T cells
Compound,[Mod] Fold Change Myo [1],[Mod] PHH Fold Change [2],[Mod] T Fold Change [3]
CC(C)CCC(COC(=O)CCCCCCCC(CCCCCCCC(=O)OCC(CCC(C)C)C(C)C)OC(=O)CCCn1ccnc1)C(C)C (stereo not drawn) [Lipid 10a-97],0.2602 Fold Change,1.163 Fold Change,0.3532 Fold Change
Cc1nccn1CCCC(=O)OC(CCCCCCCC(=O)OCC(CCC(C)C)C(C)C)CCCCCCCC(=O)OCC(CCC(C)C)C(C)C (stereo not drawn) [Lipid 10a-98],0.2906 Fold Change,0.788 Fold Change,0.677 Fold Change
Cc1nccn1CCCN(CCCCCCCC(=O)OCC(CCC(C)C)C(C)C)CCCCCCCC(=O)OCC(CCC(C)C)C(C)C (stereo not drawn) [Lipid 10a-99],0.1639 Fold Change,1.02 Fold Change,0.2767 Fold Change
CC(C)CCC(C)CCOC(=O)CCCCCCCN(CCCCCCCC(=O)OCCC(C)CCC(C)C)CCCn1ccnc1 (stereo not drawn) [Lipid 10a-100],0.4952 Fold Change,1.228 Fold Change,0.4826 Fold Change
CC(C)CCC(C)CCOC(=O)CCCCCCCC(CCCCCCCC(=O)OCCC(C)CCC(C)C)OC(=O)CCCn1ccnc1 (stereo not drawn) [Lipid 10a-101],0.533 Fold Change,1.37 Fold Change,0.853 Fold Change
Cc1nccn1CCCN(CCCCCCCC(=O)OCCC(C)CCC(C)C)CCCCCCCC(=O)OCCC(C)CCC(C)C (stereo not drawn) [Lipid 10a-102],0.04469 Fold Change,0.5141 Fold Change,0.031 Fold Change
Cc1nccn1CCCC(=O)OC(CCCCCCCC(=O)OCCC(C)CCC(C)C)CCCCCCCC(=O)OCCC(C)CCC(C)C (stereo not drawn) [Lipid 10a-103],0.04558 Fold Change,0.6471 Fold Change,0.03951 Fold Change
CC(CCOC(=O)CCCCCCCCN(CCCCCCCCC(=O)OCCC(C)CC(C)(C)C)CCCn1ccnc1)CC(C)(C)C (stereo not drawn) [Lipid 10a-104],0.07607 Fold Change,0.7745 Fold Change,0.1688 Fold Change
CC(CCOC(=O)CCCCCCCCC(CCCCCCCCC(=O)OCCC(C)CC(C)(C)C)OC(=O)CCCn1ccnc1)CC(C)(C)C (stereo not drawn) [Lipid 10a-105],0.2496 Fold Change,0.642 Fold Change,0.329 Fold Change
Cc1nccn1CCCN(CCCCCCCCC(=O)OCCC(C)CC(C)(C)C)CCCCCCCCC(=O)OCCC(C)CC(C)(C)C (stereo not drawn) [Lipid 10a-106],0.3524 Fold Change,1.093 Fold Change,0.648 Fold Change
Cc1nccn1CCCC(=O)OC(CCCCCCCCC(=O)OCCC(C)CC(C)(C)C)CCCCCCCCC(=O)OCCC(C)CC(C)(C)C (stereo not drawn) [Lipid 10a-107],0.2879 Fold Change,1.119 Fold Change,0.9371 Fold Change
CCCCC(CC)CCC(=O)OCCCCCCN(CCCCCCOC(=O)CCC(CC)CCCC)CCCn1ccnc1 (stereo not drawn) [Lipid 10a-109],0.2492 Fold Change,0.8533 Fold Change,0.6261 Fold Change
CCCCC(CC)CCC(=O)OCCCCCCN(CCCCCCOC(=O)CCC(CC)CCCC)CCCn1ccnc1C (stereo not drawn) [Lipid 10a-110],0.2424 Fold Change,0.7175 Fold Change,0.5133 Fold Change
CCCCC(CC)CCC(=O)OCCCCCCC(CCCCCCOC(=O)CCC(CC)CCCC)OC(=O)CCCn1ccnc1C (stereo not drawn) [Lipid 10a-111],0.2223 Fold Change,0.787 Fold Change,0.4651 Fold Change
CCCCC(C)CCC(=O)OCCCCCCN(CCCCCCOC(=O)CCC(C)CCCC)CCCn1ccnc1 (stereo not drawn) [Lipid 10a-112],0.3711 Fold Change,0.8075 Fold Change,0.637 Fold Change
